Results: the supplement of paper PMC4862054

How the values were obtained:
Conditions in all cases: incubation time: 72 h
BT-474 [1] = assay: normalised response (% of control), CellTiter-Glo; higher = more viable cells (100 = DMSO, 0 = benzethonium chloride kill control)
Summary of the method: (§1)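 Breast cancer cell lines were exposed for 72 h in 384-well plates to compound at 5 concentrations, 10-fold apart, covering a 10,000-fold range fixed for each compound. Plates were read for CellTox Green fluorescence and CellTiter-Glo luminescence and normalised to 0.1 % DMSO (100) and a positive kill control (0). Each value is the normalised signal at one concentration of the series.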

BT-549 [2] = assay: as above
Summary of the method: as §1

CAL-120 [3] = assay: as above
Summary of the method: as §1

CAL-148 [4] = assay: as above
Summary of the method: as §1

CAL-51 [5] = assay: as above
Summary of the method: as §1

CAL-85-1 [6] = assay: as above
Summary of the method: as §1

DU-4475 [7] = assay: as above
Summary of the method: as §1

HCC1143 [8] = assay: as above
Summary of the method: as §1

HCC1599 [9] = assay: as above
Summary of the method: as §1

HCC1937 [10] = assay: as above
Summary of the method: as §1

HDQ-P1 [11] = assay: as above
Summary of the method: as §1

Hs578T [12] = assay: as above
Summary of the method: as §1

MCF-10A = assay: as above
Summary of the method: as §1

MDA-MB-231 [13] = assay: as above
Summary of the method: as §1

MDA-MB-436 [14] = assay: as above
Summary of the method: as §1

MDA-MB-453 [15] = assay: as above
Summary of the method: as §1

MDA-MB-468 [16] = assay: as above
Summary of the method: as §1

MFM-223 [17] = assay: as above
Summary of the method: as §1

SK-BR-3 [18] = assay: as above
Summary of the method: as §1

BT-474 [19] = assay: normalised viability (% of control), CellTiter-Blue; higher = more viable cells (100 = DMSO, 0 = benzethonium chloride kill control)
Experimental: (§2)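 DSRT, CellTiter-Blue viability, 72 h incubation. Signal is normalised to DMSO and benzethonium chloride controls. Value is the normalised response at dose 1.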

BT-549 [20] = assay: as above
Experimental: as §2

CAL-120 [21] = assay: as above
Experimental: as §2

CAL-148 [22] = assay: as above
Experimental: as §2

CAL-51 [23] = assay: as above
Experimental: as §2

CAL-85-1 [24] = assay: as above
Experimental: as §2

DU-4475 [25] = assay: as above
Experimental: as §2

HCC1143 [26] = assay: as above
Experimental: as §2

HCC1599 [27] = assay: as above
Experimental: as §2

HCC1937 [28] = assay: as above
Experimental: as §2

HDQ-P1 [29] = assay: as above
Experimental: as §2

Hs578T [30] = assay: as above
Experimental: as §2

MDA-MB-231 [31] = assay: as above
Experimental: as §2

MDA-MB-436 [32] = assay: as above
Experimental: as §2

MDA-MB-453 [33] = assay: as above
Experimental: as §2

MDA-MB-468 [34] = assay: as above
Experimental: as §2

MFM-223 [35] = assay: as above
Experimental: as §2

SK-BR-3 [36] = assay: as above
Experimental: as §2

SMILES | normalised response (BT-474 [1]) [%] | normalised response (BT-549 [2]) [%] | normalised response (CAL-120 [3]) [%] | normalised response (CAL-148 [4]) [%] | normalised response (CAL-51 [5]) [%] | normalised response (CAL-85-1 [6]) [%] | normalised response (DU-4475 [7]) [%] | normalised response (HCC1143 [8]) [%] | normalised response (HCC1599 [9]) [%] | normalised response (HCC1937 [10]) [%] | normalised response (HDQ-P1 [11]) [%] | normalised response (Hs578T [12]) [%] | normalised response (MCF-10A) [%] | normalised response (MDA-MB-231 [13]) [%] | normalised response (MDA-MB-436 [14]) [%] | normalised response (MDA-MB-453 [15]) [%] | normalised response (MDA-MB-468 [16]) [%] | normalised response (MFM-223 [17]) [%] | normalised response (SK-BR-3 [18]) [%] | normalised viability (BT-474 [19]) [%] | normalised viability (BT-549 [20]) [%] | normalised viability (CAL-120 [21]) [%] | normalised viability (CAL-148 [22]) [%] | normalised viability (CAL-51 [23]) [%] | normalised viability (CAL-85-1 [24]) [%] | normalised viability (DU-4475 [25]) [%] | normalised viability (HCC1143 [26]) [%] | normalised viability (HCC1599 [27]) [%] | normalised viability (HCC1937 [28]) [%] | normalised viability (HDQ-P1 [29]) [%] | normalised viability (Hs578T [30]) [%] | normalised viability (MDA-MB-231 [31]) [%] | normalised viability (MDA-MB-436 [32]) [%] | normalised viability (MDA-MB-453 [33]) [%] | normalised viability (MDA-MB-468 [34]) [%] | normalised viability (MFM-223 [35]) [%] | normalised viability (SK-BR-3 [36]) [%]
CS(=O)(=O)OCCCCOS(C)(=O)=O [Busulfan] (10 nM) | 102 | 103 | 92.4 | 96 | 87.1 | 104 | 106 | 99.3 | 84.3 | 95.5 | 95.6 | 101 | 104 | 99.2 | 89.5 | 108 | 97.3 | 102 | 111 | 82.1 | 92.2 | 112 | 131 | 88.3 | 105 | 104 | 100 | 105 | 78.8 | 106 | 92 | 112 | 105 | 117 | 102 | 88.7 | 97
C#Cc1cccc(Nc2ncnc3cc(OC)c(OCCCCCCC(=O)NO)cc23)c1 [CUDC-101] (1 nM) | 96.5 | 101 | 100 | 98.2 | 74.1 | 94.8 | 99.1 | 102 | 108 | 96.6 | 97 | 101 | 90.8 | 109 | 98.6 | 108 | 93.8 | 98.5 | 90.8 | 108 | 96 | 79.4 | 97.1 | 111 | 77.3 | 97.5 | 79.9 | 115 | 85.9 | 85.7 | 94.9 | 94.9 | 96.4 | 88 | 94.4 | 78 | 82.3
COc1cccc2c1C(=O)c1c(O)c3c(c(O)c1C2=O)C[C@@](O)(C(C)=O)C[C@@H]3O[C@H]1C[C@H](N)[C@H](O)[C@H](C)O1 [Daunorubicin] (0.1 nM) | 108 | 106 | 99 | 112 | 108 | 102 | 100 | 103 | 104 | 95.6 | 104 | 107 | 112 | 105 | 129 | 112 | 102 | 108 | 101 | 101 | 100 | 87.8 | 106 | 99.2 | 88.7 | 88.2 | 102 | 101 | 115 | 98.8 | 130 | 103 | 99.1 | 107 | 100 | 97.3 | 85.2
CN1CCN(c2ccc3nc(-c4c(N)c5c(F)cccc5[nH]c4=O)[nH]c3c2)CC1 [Dovitinib] (1 nM) | 99.9 | 102 | 94.9 | 98.2 | 106 | 100 | 96.2 | 98.3 | 105 | 96.3 | 96 | 103 | 89.3 | 102 | 99.5 | 102 | 99.6 | 95.4 | 94.1 | 110 | 96.2 | 78.8 | 104 | 114 | 82 | 113 | 87.3 | 92.6 | 92.2 | 87.4 | 96.5 | 84.5 | 105 | 98.3 | 89.2 | 80.6 | 77.6
